Legend:
PPARγ = target: T1, PPARγ (Homo sapiens, UniProt P37231); experiment: PPARγ reporter functional assay (CTF); type: cell-based; conditions: examined up to 10 μM; CV1 cells; luciferase
T1 sequence (P37231 1-505): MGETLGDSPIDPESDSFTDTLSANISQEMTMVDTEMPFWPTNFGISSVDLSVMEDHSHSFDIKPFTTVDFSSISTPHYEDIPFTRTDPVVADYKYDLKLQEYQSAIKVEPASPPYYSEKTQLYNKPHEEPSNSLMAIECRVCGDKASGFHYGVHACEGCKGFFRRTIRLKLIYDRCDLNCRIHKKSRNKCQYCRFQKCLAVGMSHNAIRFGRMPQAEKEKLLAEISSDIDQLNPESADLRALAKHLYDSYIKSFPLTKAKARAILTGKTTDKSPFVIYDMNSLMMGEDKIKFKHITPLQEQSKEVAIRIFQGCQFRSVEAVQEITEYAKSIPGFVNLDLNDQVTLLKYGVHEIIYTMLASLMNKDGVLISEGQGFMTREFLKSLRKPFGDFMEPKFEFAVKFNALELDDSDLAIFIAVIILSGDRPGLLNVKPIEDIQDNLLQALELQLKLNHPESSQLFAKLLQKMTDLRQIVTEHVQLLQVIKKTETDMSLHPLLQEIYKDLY
T1 sequence (P19793 1-462 partner): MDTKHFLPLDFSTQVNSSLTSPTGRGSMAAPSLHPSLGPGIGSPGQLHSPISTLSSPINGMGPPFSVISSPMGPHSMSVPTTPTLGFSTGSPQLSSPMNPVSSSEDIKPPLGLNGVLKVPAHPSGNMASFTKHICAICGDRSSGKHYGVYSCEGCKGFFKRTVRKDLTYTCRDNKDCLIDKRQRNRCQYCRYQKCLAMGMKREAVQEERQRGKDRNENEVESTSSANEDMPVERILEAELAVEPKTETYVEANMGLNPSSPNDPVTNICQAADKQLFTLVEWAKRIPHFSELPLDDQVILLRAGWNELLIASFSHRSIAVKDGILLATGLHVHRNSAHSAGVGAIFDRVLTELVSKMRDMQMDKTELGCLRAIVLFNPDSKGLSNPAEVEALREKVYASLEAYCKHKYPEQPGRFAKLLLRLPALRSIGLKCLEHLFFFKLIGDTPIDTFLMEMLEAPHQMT
From the text: Gal4 PPARα, Gal4 PPARδ, and PPARγ reporter functional assays are also used to monitor the selectivity of exemplified compounds. CV1 cells, which are derived from the renal tissue of an African green monkey, are transfected with various receptor and reporter plasmids using Fugene. For the Gal4 PPARα and PPARδ assays, a reporter plasmid containing five tandem copies of the yeast transcription protein Gal4 response element, cloned upstream of a firefly luciferase gene driven by the major late promoter of adenovirus, is transfected together with a Simian Virus 40 (SV40) driven plasmid constitutively expressing a hybrid protein containing the Gal4 DNA binding domain (DBD), and either the PPARα or PPARδ ligand binding. For the PPARγ assay, plasmids encoding PPARγ and RXRα, both driven by a cytomegalovirus (CMV) promoter are transfected together with a plasmid containing luciferase reporter cDNA driven by the TK promoter and a receptor response element (2×PPRE). Cells are transfected in T225 cm^2 cell culture flasks in DMEM media with 5% charcoal-stripped FBS. […] After 24 hours incubation with compounds, cells are lysed and luciferase activity is determined as a measure of receptor activation by luminescence. […] The maximum percent stimulation is determined versus maximum stimulation obtained with 10 μM of an appropriate PPAR agonist reference compound. […]

Male Balb/c mice = experiment: Intraperitoneal Glucose Tolerance Test (IPGTT); type: in vivo, mouse; conditions: for glucose levels: positive control 10 mg/kg
Procedure: To examine the ability of exemplified compounds to activate GPR40 in-vivo resulting in anti-diabetic efficacy, i.e. an increase in insulin and reduction in glucose levels, a 4-day intraperitoneal glucose tolerance test (ipGTT) study is completed with each compound.
Male Balb/c (Albino mice) mice (8-9 weeks of age) are single housed and fed with normal rodent chow diet and water ad libitum. Animals are weighed and randomized by body weight and daily body weights are recorded. Upon study initiation, animals are dosed once per day orally for three days using a formulation carrying methylcellulose and tween-80. On the night before the 4-day IPGTT study, animals are fasted overnight in clean cages. On the morning of the IPGTT (Day 4), animals are dosed orally with compound or vehicle alone 60 minutes prior to the IPGTT (glucose 2 g/kg, i.p.). Blood glucose levels are determined from tail bleeds taken at 0, 3, 7, 15, 30, and 60 min after glucose challenge. Plasma is isolated and used to estimate respective insulin levels. The blood glucose excursion profile from t=0 to t=60 min is used to integrate an area under the curve (AUC) for each treatment. Percent lowering in glucose is calculated from the AUC data of the compounds with respect to the AUC of vehicle group. The test compound is orally administered at 0.03, 0.1, 0.3, 1.0, or 3.0 mg/kg, and a positive control is administered at 10 mg/kg. […] The ED50 for the compound of Example 1 based on AUCs for glucose lowering is 0.09 mg/kg. […] The results of this assay support the compound's activation of GPR-40, with resulting in vivo anti-diabetic efficacy.

functional activation (PPARγ): No functional activation
Structure (SMILES): CC#C[C@@H](CC(=O)O)c1ccc(OCc2ccc(CN3CCC4(C=Cc5ccccc54)CC3)cc2)cc1 [Example 1, (3S)-3-(4-{[4-(1′H-Spiro[indene-1,4′-piperidin]-1′-ylmethyl)benzyl]oxy}phenyl)hex-4-ynoic acid]
insulin levels (Male Balb/c mice; 3 minute time point, 1.0 and 3.0 mg/kg oral): significantly elevated
glucose levels (Male Balb/c mice; 3 minute time point, Example 1 0.03-3.0 mg/kg oral): No concentration of the compound of Example 1 or the positive control significantly lowered
glucose levels (Male Balb/c mice; 7 minute time point, Example 1 0.3, 1.0, and 3.0 mg/kg oral): significantly lowered
glucose levels (Male Balb/c mice; 15 minute time point, Example 1 0.1, 0.3, 1.0, and 3.0 mg/kg oral): significantly lowered
glucose levels (Male Balb/c mice; 30 minute time point, all doses of Example 1 (0.03-3.0 mg/kg oral)): significantly lowered
glucose levels (Male Balb/c mice; 60 minute time point, all doses of Example 1 (0.03-3.0 mg/kg oral)): significantly lowered
ED50 (Male Balb/c mice; Mus musculus, oral, once per day, 4-day, glucose 2 g/kg i.p., AUC t=0 to 60 min, read-out: ED50 based on AUCs for glucose lowering): 0.09 mg/kg
